The results in this text go back to patent publication US7985410B2, “Method or agent for inhibiting the function of efflux pump Pseudomonas aeruginosa” (Tokai University, priority 2006, dated 2011).

In general, MIC refers to the least concentration at which growth counts as inhibited.

The structures appear in SMILES notation. ≈ marks a conversion by molar mass, not a printed value. Where two headings read alike, the source gives them in different places.

Common to all, as to assay type: cell-based
The subject of assay [1] is Pseudomonas aeruginosa lacking OprM, plasmid with OprM (D102C). Briefly: Drug sensitivity (MIC), OprM (D102C). The protocol: (§1) Mutant protein was prepared in which 20 amino acid residues were replaced by cysteine residues, respectively, in E1 and E2 domains of the amino acid sequence of mature OprM protein as above. First, OprM gene was introduced into pUCP20 as a vector. This vector is a shuttle vector which works in Escherichia coli and Pseudomonas aeruginosa. Specific mutation was introduced to OprM gene by using regular mutation introducing kit, and resultant vector was transformed into E. coli. The resultant E. coli was cultured to prepare plasmid, and the sequence of the plasmid was determined to confirm that the mutation was successfully introduced.
(§2) Next, the plasmid was introduced into the Pseudomonas aeruginosa lacking OprM, and the drug sensitivity of the resultant bacteria was determined to evaluate the pump function thereof. Drug sensitivity might be enhanced if the function of the pump was inhibited. Drug sensitivity was indicated by minimum inhibitory concentration (MIC). Aztreonam (AZT) (β-1 lactam antibiotic) and nalidixic acid (NA) (qunolone antibiotic) were used as drugs.

Assay [2] deals with Pseudomonas aeruginosa lacking OprM, plasmid with OprM (R311C). Briefly: Drug sensitivity (MIC), OprM (R311C). As to conditions: for resistance of the bacteria to the drug (in words): OprM (311C) mutant vs wild type; for MIC: Pseudomonas aeruginosa, OprM (R311C). As to the method: as §1, §2
The subject of assay [3] is Pseudomonas aeruginosa lacking OprM, plasmid with OprM (G101C). Briefly: Drug sensitivity (MIC), OprM (G101C). The protocol: as §1, §2
The subject of assay [4] is Pseudomonas aeruginosa lacking OprM, plasmid with OprM (T105C). Kind of assay: Drug sensitivity (MIC), OprM (T105C). As to the method: as §1, §2
The test system of assay [5] is Pseudomonas aeruginosa lacking OprM, plasmid with OprM (Q312C). Kind of assay: Drug sensitivity (MIC), OprM (Q312C). As to the method:
as §1, §2

Assay [6] relates to Pseudomonas aeruginosa lacking OprM, plasmid with OprM (L103C). Briefly: Drug sensitivity (MIC), OprM (L103C). The protocol:
as §1, §2

The test system of assay [7] is Pseudomonas aeruginosa lacking OprM, plasmid with OprM (S104C). Briefly: Drug sensitivity (MIC), OprM (S104C). The protocol: as §1, §2
Assay [8] deals with Pseudomonas aeruginosa lacking OprM, plasmid with OprM (F317C). Briefly: Drug sensitivity (MIC), OprM (F317C). As to the method:
as §1, §2

In assay [9] the test system is Pseudomonas aeruginosa lacking OprM, plasmid with OprM (D318C). Briefly: Drug sensitivity (MIC), OprM (D318C). The note with it: for resistance of the bacteria to the drug (in words): OprM (D318C) mutant vs wild type; for MIC: Pseudomonas aeruginosa, OprM (D318C). The protocol: as §1, §2
Assay [10] relates to Pseudomonas aeruginosa lacking OprM, plasmid with OprM (S314C). Kind of assay: Drug sensitivity (MIC), OprM (S314C). As to the method:
as §1, §2

In assay [11] the test system is Pseudomonas aeruginosa lacking OprM, plasmid with OprM (G315C). Kind of assay: Drug sensitivity (MIC), OprM (G315C). As to the method:
as §1, §2

The test system of assay [12] is Pseudomonas aeruginosa lacking OprM, plasmid with OprM (A319C). Kind of assay: Drug sensitivity (MIC), OprM (A319C). As to the method: as §1, §2
The test system of assay [13] is Pseudomonas aeruginosa lacking OprM, plasmid with OprM (G320C). Briefly: Drug sensitivity (MIC), OprM (G320C). As to the method: as §1, §2
For assay [14], the system named is Pseudomonas aeruginosa lacking OprM, plasmid with OprM (P109C). Briefly: Drug sensitivity (MIC), OprM (P109C). The note with it: for MIC: Pseudomonas aeruginosa, OprM (P109C). The protocol:
as §1, §2

Assay [15] deals with Pseudomonas aeruginosa lacking OprM, plasmid with OprM (L313C). Briefly: Drug sensitivity (MIC), OprM (L313C). As to the method: as §1, §2
Assay [16] relates to Pseudomonas aeruginosa lacking OprM, plasmid with OprM (T106C). Kind of assay: Drug sensitivity (MIC), OprM (T106C). The protocol:
as §1, §2

In assay [17] the test system is Pseudomonas aeruginosa lacking OprM, plasmid with OprM (S108C). Briefly: Drug sensitivity (MIC), OprM (S108C). As to the method: as §1, §2
Assay [18] relates to Pseudomonas aeruginosa lacking OprM, plasmid with OprM (wild type). Briefly: Drug sensitivity (MIC), OprM (wild type). As to the method: as §1, §2
In assay [19] the test system is Pseudomonas aeruginosa lacking OprM, plasmid with OprM (P100C). Kind of assay: Drug sensitivity (MIC), OprM (P100C). The protocol: as §1, §2
Assay [20] has as its system Pseudomonas aeruginosa lacking OprM, plasmid with OprM (L316C). Briefly: Drug sensitivity (MIC), OprM (L316C). The protocol:
as §1, §2

The subject of assay [21] is Pseudomonas aeruginosa lacking OprM, plasmid with OprM (G107C). Kind of assay: Drug sensitivity (MIC), OprM (G107C). As to the method:
as §1, §2

In the case of `C[C@H]1[C@H](NC(=O)/C(=N\OC(C)(C)C(=O)O)c2csc(N)n2)C(=O)N1S(=O)(=O)O` [AZT, aztreonam], the MIC is 3.13 µg/mL (≈ 7.19 µM) in assay [1] (read-out: MIC for AZT); 0.39 µg/mL (≈ 0.896 µM) in [2] (read-out: MIC for AZT); 3.13 µg/mL (≈ 7.19 µM) in assay [3] (read-out: MIC for AZT); 3.13 µg/mL (≈ 7.19 µM) in assay [4] (read-out: MIC for AZT); 0.78 µg/mL (≈ 1.79 µM) in [5] (read-out: MIC for AZT); 3.13 µg/mL (≈ 7.19 µM) in [6] (read-out: MIC for AZT). In addition, the MIC in assay [7] (read-out: MIC for AZT) was 3.13 µg/mL (≈ 7.19 µM); in [8] (read-out: MIC for AZT), 1.54 µg/mL (≈ 3.54 µM); in [9] (read-out: MIC for AZT), 0.39 µg/mL (≈ 0.896 µM); in [10] (read-out: MIC for AZT), 3.13 µg/mL (≈ 7.19 µM); in assay [11] (read-out: MIC for AZT), 0.78 µg/mL (≈ 1.79 µM); in assay [12] (read-out: MIC for AZT) it was 1.54 µg/mL (≈ 3.54 µM). Besides, the MIC in assay [13] (read-out: MIC for AZT) amounted to 1.54 µg/mL (≈ 3.54 µM); in assay [14] (read-out: MIC for AZT) it was 3.13 µg/mL (≈ 7.19 µM); in assay [15] (read-out: MIC for AZT) it was 3.13 µg/mL (≈ 7.19 µM); in [16] (read-out: MIC for AZT), 3.13 µg/mL (≈ 7.19 µM); in assay [17] (read-out: MIC for AZT) it was 3.13 µg/mL (≈ 7.19 µM); in assay [18] (read-out: MIC for AZT) it was 3.13 µg/mL (≈ 7.19 µM). In addition, the MIC in assay [19] (read-out: MIC for AZT), in assay [20] (read-out: MIC for AZT) and in assay [21] (read-out: MIC for AZT) was 3.13 µg/mL (≈ 7.19 µM) throughout. For the same compound, the “resistance of the bacteria to the drug (in words)” value in assay [2] and in assay [9] was “markedly reduced resistance” throughout.
Regarding `CCn1cc(C(=O)O)c(=O)c2ccc(C)nc21` [NA, nalidixic acid], the MIC in [1] (read-out: MIC for NA) is 50 µg/mL (≈ 215 µM); in assay [2] (read-out: MIC for NA) it was 6.25 µg/mL (≈ 26.9 µM); in assay [3] (read-out: MIC for NA), 50 µg/mL (≈ 215 µM); in [4] (read-out: MIC for NA), 50 µg/mL (≈ 215 µM); in assay [5] (read-out: MIC for NA), 25 µg/mL (≈ 108 µM); in [6] (read-out: MIC for NA) it was 50 µg/mL (≈ 215 µM). Also, the MIC turned out to be 50 µg/mL (≈ 215 µM) in [7] (read-out: MIC for NA); 50 µg/mL (≈ 215 µM) in assay [8] (read-out: MIC for NA); 25 µg/mL (≈ 108 µM) in assay [9] (read-out: MIC for NA); 50 µg/mL (≈ 215 µM) in [10] (read-out: MIC for NA); 25 µg/mL (≈ 108 µM) in [11] (read-out: MIC for NA); 50 µg/mL (≈ 215 µM) in assay [12] (read-out: MIC for NA). The MIC in assay [13] (read-out: MIC for NA) is 50 µg/mL (≈ 215 µM); in [14] (read-out: MIC for NA) it was 3.13 µg/mL (≈ 13.5 µM); in [15] (read-out: MIC for NA) it was 50 µg/mL (≈ 215 µM); in assay [16] (read-out: MIC for NA), 50 µg/mL (≈ 215 µM); in assay [17] (read-out: MIC for NA), 50 µg/mL (≈ 215 µM); in assay [18] (read-out: MIC for NA), 50 µg/mL (≈ 215 µM). For the same compound, the MIC in assay [19] (read-out: MIC for NA), in assay [20] (read-out: MIC for NA) and in [21] (read-out: MIC for NA) was 50 µg/mL (≈ 215 µM) throughout. Also, the “resistance of the bacteria to the drug (in words)” value in [2] is given as “markedly reduced resistance”; in assay [9] it was “did not reduce resistance”. Moreover, the “drug sensitivity of the bacteria (in words)” value in assay [14] (OprM (P109C) mutant vs wild type) is “enhanced drug sensitivity”.
